{"source": "paper PMC10755736", "about": "“Modulating Liquid–Liquid Phase Separation of Nck Adaptor Protein against Enteropathogenic Escherichia coli Infection” (ACS Central Science, 2023)", "key": {"[1]": {"molecular_target": "T1, Nck (Homo sapiens, UniProt P16333)", "T1 construct": "GST (followed by PreScission/HRV 3C site) (N, cleaved yes); made in house; host or cells: E. coli BL21(DE3)", "test": "Reaction kinetics of p1 crosslinking with Nck (SDS-PAGE)", "assay_type": "binding", "conditions": "1:1 reaction, p1 5 μM, Nck 5 μM, PBS, 37 °C", "method": "ether and purified by reverse-phase HPLC on a C18 column using acetonitrile/H2O (with 0.1% TFA) gradient on a reversed-phase C18 column, confirmed by MALDI-TOF MS analysis (Bruker, USA).\nPure peptides were lyophilized.\nCrosslinking of Peptides with Nck in vitro […]\nAfter incubation, 5´ loading buffer was added into the solution and heated at 100 °C for 10 min. These samples were then separated by 12% SDS-PAGE gel, which contained 10% glycerol instead of DI water, followed by staining with Coomassie brilliant blue. Western blot was then performed using the primary antibody specific for Nck or biotin and the secondary antibody.\nMass Spectrometric Analysis\nThe reaction mixture of Nck and p1 were digested with trypsin. Digested peptides were analyzed with an in-line EASY-spray source and nano-LC UltiMate 3000 high-performance liquid chromatography system (Thermo Fisher, USA) interfaced with an Elite mass spectrometer (Thermo Fisher, USA). The eluted peptides were detected by the Elite mass spectrometer, which was operated in data-dependent mode with one full MS scan at R = 60,000 (m/z = 200) mass, followed by MS/MS scans. Mass spectrometry raw data was searched by Maxquant.\nProtein–Peptide Conjugation Reactions and the Binding Assay\nThe reaction solutions were then thermally denatured in the presence of loading dye to stop the reactions. […]"}, "[2]": {"tested_on": "Nck puncta in Caco-2 cells", "test": "Nck puncta number in Caco-2 cells overexpressing dsRed-Nck", "assay_type": "cell-based", "conditions": "L17E 40 μM, p1 1 μM, N = 20 cells", "source_text": "Figure 6 Peptide p1 inhibits the formation of the Nck/N-WASP condensate in mammalian cells. (a) Schematic illustration showing inhibition of intracellular Nck coacervation by p1. (b) Confocal microscopic images showing the formation of Nck/N-WASP puncta in HeLa cells that overexpress GFP-N-WASP and dsRed-Nck. Scale bar: 10 μm. (c) FRAP analysis showing the Nck/N-WASP condensates in HeLa cells have fluidity properties based on the recovery of the GFP fluorescent signal after photobleaching in a two-photon microscope with excitation at 920 nm. Scale bar: 5 μm. […] L17E, 40 μM; p1, 1 μM. Statistical analyses of puncta number per cell in the control and experiment (L17E/p1). N = 20 cells. […]\nconcentrations were added to each well, followed by a 90-min incubation at 37 °C. Diluted streptavidin-HRP solution was then added, followed by substrate solution to develop cover at 450 nm, and recorded by a plate reader. […] And then the samples were scanned and measured at 20% IR Laser power with 30 s laser-on time on a Monolith NT.115 instrument (NanoTemper Technologies). The data were analyzed by KD fitting model (KD) or hill fitting model […]\nPlasmid extraction was done using a plasmid DNA Maxi kit (Omega Bio-Tek, GA, USA). […] 48 h after transfection, cells were analyzed by fluorescent micrscopes. Cell viability was measured by a CCK8 assay (Thermo Fisher Scientific) according to its manual."}, "[3]": {"tested_on": "EPEC infection of Caco-2 cells", "test": "EPEC infection assay of Caco-2 cells (CFU counts)", "assay_type": "cell-based, enteropathogenic Escherichia coli", "conditions": "L17E 40 μM", "method": "Lastly, to examine whether pretreatment of Caco-2 cells with L17E/p1 could prevent EPEC infection, we first established a bacterial infection assay (Figure 7a). Caco-2 cells were pretreated with L17E/p1 for 2 h. After excess peptides were removed, Caco-2 cells were then infected with EPEC at different multiplicity of infection (MOI) values (MOI is commonly defined as the ratio of infectious bacteria to cells in a culture) for 3 h, and extra bacterial cells were removed from the culture. Next, gentamicin was added to the cell culture to remove EPEC that are merely attached to the surface of Caco-2 cells, leaving only engulfed EPEC inside Caco2 cells to be counted (gentamicin treatment will not kill intracellular bacteria due to its cellular impermeability). After gentamicin was washed away, cells were lysed to release EPEC cells inside, and the cell lysates were diluted to count the number of EPEC cells as colony-forming units (cfu) on agar plates.\nCaco-2 cells were seeded in a 24-well plate at a density of 1×10^4 cells for 24 h and pretreated with peptide complexes for 2 h. After washing with DMEM, cells were infected with EPEC at selected MOI values for 3 h at 37 ℃. Cells were then treated with gentamicin ([…]) for 2 h and lysed with 1% […]\nTriton X-100 for 15 min. […]\nThe sample was loaded onto 12% SDS/PAGE glycerol gel and then transferred onto a PVDF membrane using Bio-Rad […]. The membrane was blocked and incubated with a rabbit anti-Nck antibody (Abcam, Hong Kong) at 4 °C overnight, followed by a n anti -rabbit HRP -labeled secondary antibody (Abcam, Hong Kong).\nSPSS 23.0 statistical software was used to process experimental data. The differences between mean ± SEM of three independent experiments were assessed by Student's t -test."}}, "note": "“Also recorded” adds a separate entry of the source. Non-standard residues stand in square brackets, D forms with d. Residues, ends and D or L forms follow the SMILES beside them. *: point of attachment. Biotin = O=C1N[C@H]2[C@H](CS[C@H]2CCCCC(=O)*)N1; Benzoyl(4-SO2F) = O=C(c1ccc(S(=O)(=O)F)cc1)*; pY = N[C@@H](Cc1ccc(OP(=O)(O)O)cc1)C(=O)O; Dap = NC[C@H](N)C(=O)O", "data": [{"smiles": "CC[C@H](C)[C@H](NC(=O)[C@H](Cc1c[nH]cn1)NC(=O)[C@H](CCC(=O)O)NC(=O)[C@H](CCC(=O)O)NC(=O)CCCC[C@@H]1SC[C@@H]2NC(=O)N[C@@H]21)C(=O)N[C@@H](Cc1ccc(OP(=O)(O)O)cc1)C(=O)N[C@@H](CNC(=O)c1ccc(S(=O)(=O)F)cc1)C(=O)N[C@@H](CCC(=O)O)C(=O)N[C@H](C(=O)N[C@@H](C)C(=O)N[C@@H](C)C(=O)N[C@@H](CC(=O)O)C(N)=O)C(C)C", "note": "[p1] (Biotin-EEHI[pY][Dap](Benzoyl(4-SO2F))EVAAD-NH2; N-terminus and C-terminus assumed)", "values": [{"measurement": "time to reach 50% reaction efficiency", "setting": "[1]", "result": 2, "unit": "min"}, {"measurement": "number of Nck puncta", "setting": "[2]", "result": "reduced the number of Nck puncta"}, {"measurement": "decline in Nck puncta numbers", "setting": "[2]; 2 h", "result": 50, "unit": "%"}, {"measurement": "efficacy compared with Y474 in anti-infection assay", "setting": "[3]; p1 vs Y474 at lower concentrations", "result": "significantly higher efficacy than Y474 at lower concentrations"}, {"measurement": "blockage of EPEC invasion/infection of Caco-2 cells", "setting": "[3]; with L17E-mediated delivery", "result": "rendered Caco-2 cells resistant to EPEC infection; also recorded: can block EPEC invasion to Caco-2 cells"}]}]}
